Experimental data from article PMC12651578, “Ultrasound-Assisted Fibril Formation Enhances Complexation of Oat Globulin with Quercetin: Mechanism, Structure Evolution, Delivery Performance” (Foods, 2025).

What was measured:
[1] = Photostability of Que under 365 nm UV lamp; format: physicochemical; settings: 1.32 mW/cm^2, 150 min
Procedure: The photostability of encapsulated Que was assessed using a 365 nm UV lamp with a light intensity of 1.32 mW/cm^2. Aliquots of 5 mL from each sample group were placed 10 cm away from the UV light source and exposed for various durations (0, 10, 30, 60, 90, 120, and 150 min). The retention of Que in each sample was then measured.

[2] = In vitro simulated gastrointestinal digestion, bioaccessibility of Que; format: in vitro ADME; settings: simulated gastric (2 h) and intestinal (2 h) digestion, 37 °C
Procedure: The release behavior and bioaccessibility of Que in the complex system were evaluated using an in vitro simulated digestion model with modifications based on previous studies. Briefly, sample solutions loaded with Que (protein concentration: 4 mg/mL) were mixed with equal volumes (10 mL) of simulated gastric fluid containing pepsin. The pH was adjusted to 2.0 using 6 M HCl, and the mixture was incubated at 37 °C with shaking at 100 rpm to simulate gastric digestion for 2 h. Afterward, the pH was adjusted to 7.0 to terminate gastric digestion. For intestinal digestion, 5 mL of the gastric digest was mixed with 5 mL of simulated intestinal fluid containing trypsin and bile salts, followed by incubation at 37 °C for another 2 h. The collected digestion products were centrifuged at 10,000× g for 30 min at 4 °C, and the supernatant was analyzed for Que content to determine the bioaccessibility: (8) Bioaccessibility of Que%=Csupernatant/Cdigesta×100% where Csupernatant denotes the Que content in the supernatant after digestion, and Cdigesta refers to the total Que content in the final digesta after simulated gastrointestinal digestion.

[3] = Thermal stability of Que at 85 °C; format: physicochemical
Procedure: The thermal stability of Que was evaluated following a previously described method with slight modifications. Briefly, 5 mL aliquots of free Que suspension (control), OG-Que complex solution, OGF-Que complex solution, and UOGF-Que complex solution were placed in a water bath at 85 °C under dark conditions in sealed containers. At predetermined time intervals (0, 10, 30, 60, 90, 120, and 150 min), samples were withdrawn, rapidly cooled to 25 °C, vortexed, and analyzed for Que retention.

OGF [4] = biological target: T1, OGF; experiment: Intrinsic protein fluorescence quenching by quercetin (0-30 uM, 0.3 mg/mL protein, pH 3.2, inner filter corrected), double-logarithmic Stern-Volmer plot, 298 K.; format: binding; settings: n = 3
T1 construct: amyloid-like fibrils made by acid-heat treatment without ultrasound, partly hydrolysed
Procedure: (§1) Intrinsic fluorescence spectroscopy was employed to investigate the interaction between OG and its fibrillar products with Que. The binding capacities of OG, OGF, and UOGF were evaluated at pH 3.2 with various concentrations of Que (0, 2.5, 5, 10, 15, 20, and 30 μM). The mixed samples were incubated at different temperatures of 24.85, 30.85, and 36.85 °C (298, 304, and 310 K) for 30 min. Then the intrinsic fluorescence spectra of each sample (0.3 mg/mL) were recorded using a Cary Eclipse fluorescence spectrophotometer (Agilent Technologies, Santa Clara, CA, USA) following to the previously described protocols. The instrument voltage was set to 650 V, with a slit width and scan rate of 5 nm and 1000 nm/min, respectively. Meanwhile, to correct for the inner filter effect, the following equation was applied as described by Ren et al.. (1) Fc=Fm×10^(Aex+Aem)/2 where Fc and Fm represent the corrected and measured fluorescence intensities, while Aex and Aem denote the absorbance at the excitation and emission wavelengths, respectively.
(§2) The fluorescence quenching mechanism of the complex system was further analyzed by fitting the obtained fluorescence intensity data using the Stern–Volmer equation: (2) F0/F=1+KSVQ=1+Kqτ0Q where F0 and F represent the fluorescence intensities of OG and its fibrils before and after the addition of the polyphenol quencher (Que), respectively; KSV is the Stern–Volmer quenching constant; Kq is the quenching rate constant; [Q] is the concentration of the quencher Que; and τ0 is the average lifetime of the fluorophore in the absence of the quencher.
(§3) Considering the static quenching effect between the OG protein/fibrils and the Que ligand, the binding mechanism was further analyzed using a double logarithmic Stern–Volmer equation: (9) lgF0−F/F=lgKa+nlgQ where the binding constant (Ka) and the number of binding sites (n) are key quantitative parameters reflecting the interaction between the bioactive molecule and the protein; the magnitude of Kₐ indicates the binding affinity between Que and the protein.

UOGF [5] = biological target: T2, UOGF; experiment: as above; format: binding; settings: n = 3
T2 construct: amyloid-like fibrils, ultrasound pretreatment (pH 2, 9 W/mL, 20 min) then 90 °C for 18 h, partly hydrolysed
Procedure: as §1, §2, §3

OG [6] = biological target: T3, OG; experiment: as above; format: binding; settings: n = 3
T3 construct: native oat globulin isolate, unfibrillated, pH 3.2
Procedure: as §1, §2, §3

OGF [7] = biological target: T1, OGF; experiment: Intrinsic protein fluorescence quenching by quercetin (0-30 uM, 0.3 mg/mL protein, pH 3.2, inner filter corrected), double-logarithmic Stern-Volmer plot, 304 K.; format: binding; settings: n = 3
Procedure: as §1, §2, §3

UOGF [8] = biological target: T2, UOGF; experiment: as above; format: binding; settings: n = 3
Procedure: as §1, §2, §3

OG [9] = biological target: T3, OG; experiment: as above; format: binding; settings: n = 3
Procedure: as §1, §2, §3

OGF [10] = biological target: T1, OGF; experiment: Intrinsic protein fluorescence quenching by quercetin (0-30 uM, 0.3 mg/mL protein, pH 3.2, inner filter corrected), double-logarithmic Stern-Volmer plot, 310 K.; format: binding; settings: n = 3
Procedure: as §1, §2, §3

UOGF [11] = biological target: T2, UOGF; experiment: as above; format: binding; settings: n = 3
Procedure: as §1, §2, §3

OG [12] = biological target: T3, OG; experiment: as above; format: binding; settings: n = 3
Procedure: as §1, §2, §3

O=c1c(O)c(-c2ccc(O)c(O)c2)oc2cc(O)cc(O)c12 [Que, Quercetin]
retention rate of Que after UV exposure [1]: 27.78%
bioaccessibility of Que [2]: 8.21%
retention rate of Que after heating ([3]; 30 min): 45.13%
retention rate of Que after heating ([3]; 150 min): 26.48%

O=c1c(O)c(-c2ccc(O)c(O)c2)oc2cc(O)cc(O)c12 [Que, quercetin]
Ka (M^−1), 298 K (OGF [4]): 17140 M⁻¹
Ka (M^−1), 298 K (UOGF [5]): 20910 M⁻¹
Ka (M^−1), 298 K (OG [6]): 12850 M⁻¹
Ka (M^−1), 304 K (OGF [7]): 26060 M⁻¹
Ka (M^−1), 304 K (UOGF [8]): 49870 M⁻¹
Ka (M^−1), 304 K (OG [9]): 16330 M⁻¹
Ka (M^−1), 310 K (OGF [10]): 79670 M⁻¹
Ka (M^−1), 310 K (UOGF [11]): 202600 M⁻¹
Ka (M^−1), 310 K (OG [12]): 16470 M⁻¹
